Reference: patent US20040127439A1, “Introduction of the wld gene for prevention of axonal degeneration in neurological diseases” (priority 2004, published 2004)
Read-outs that look alike come from different tables or passages of the source.

Tests used:
[1] = system: C57BL/6 cultured neurites; assay: Vincristine neuropathy in C57BL/6 mouse DRG cultures; assay type: cell-based
Method: DRGs were allowed to mature for 5 days to create a lush halo of neurites. […] This date was defined as treatment day 0. […] Cultures were monitored and imaged on day 0, day 4, day 8 and day 10 of treatment using video microscopy.
Measures of axonal survival were the length of longest remaining axon, and the area of remaining DRG halo, as determined by serial phase-contrast video microscopy (FIG. 6). The axonal length was measured from the center of the DRG to the visible distal end of the axon. […] Data were thus analyzed as percent of day 0.

DRG neurites = conditions: for reduction in DRG area versus day 0: vincristine 0.01 μM; for Area (DRG neuritic halo) / Length (longest neurite): Vin 0.01 μM, AK295 50 μM, EGTA 2 mM, sulfate salt
Method: On the day of DRG culture, the dishes are washed twice with PBS buffer (pH 7.4), filled with 550 μl medium and pre-incubated at 37 C for at least 2 hours. Fifteen-day old embryos (E15) are removed from pregnant Sprague-Dawley rats (Charles River), and spinal cords with cervical and thoracic DRGs attached are dissected into Leibovitz L-15 medium (GIBCO). Ganglia are separated from the spinal cord, stripped of their connective tissue sheaths and roots, and are then pooled and washed twice with PBS buffer (pH 7.4). DRGs are plated (4 per dish) in culture media and incubated at 37° C. in 5% carbon dioxide for 4 hours to allow DRGs to attach to the substrate. Medium is then added to bring the total volume to 1 ml. […] Calcium-free medium is prepared in the same manner, replacing MEM with S-MEM (GIBCO).
At the end of the treatment period (see below) DRGs are fixed for 30 minutes with 4% paraformaldehyde. Cultures are then rinsed with 0.1M TBS buffer, and treated sequentially with 3% H2O2, TBS-Triton, and 4% normal goat serum (NGS), each for 30 minutes at room temperature. DRGs are incubated at 4 C overnight in monoclonal antibody to MAP5 (1:500, Sigma). After washing in TBS-Triton, DRGs are incubated for 60 minutes in biotinylated secondary antibody, rinsed with TBS and reacted with avidin-biotin complex solution (ABC; Vector Labs) for one hour. Color is generated by incubation for 10 minutes in diaminobenzidine (DAB) solution, enhanced by addition of 0.025% cobalt chloride and 0.02% nickel ammonium sulfate. Stained tissue is rinsed, air dried and cover-slipped for microscopy with Crystal/Mount (Biomeda).
This method of allowing neuritic extension to proceed before addition of a neurotoxin tests the effect of the toxin on established neurites as opposed to the effect on primary neuritic outgrowth.
After day 5 of culture, the media is changed to that containing the experimental treatment. This date is defined as treatment day 0. Cultures are monitored and imaged daily using video microscopy. […] AK 295 (Z-leu-Abu-(CH2)3-4-morpholinyl, gift of Dr. James Powers, Georgia Institute of Technology), is dissolved in 100% DMSO and is then diluted to its final concentration with culture medium. The final concentration of DMSO is 0.05%. Phenylmethylsulfonyl fluoride (PMSF) is manufactured by and commercially available from Sigma.
After 6 days of treatment (11 days in culture) immunostained DRGs are quantitated for degree of axonal degeneration. Images of the DRGs and neurites are captured onto disk using a computerized video imaging system, and are analyzed using NIH Image version 1.61. DRG areas are calculated by tracing the outside circumference of the remaining culture halo. The length of the longest neurite of each DRG is measured from the center of the DRG to the distal end of the neurite, so that cultures without remaining neurites still have positive values. These quantitative data are subjected to ANOVA, with post-test correction for multiple comparisons.

C57BL/6 DRG axons = assay: Vincristine withdrawal in C57BL/6 mouse DRG cultures; assay type: cell-based; conditions: 0.05 μM vincristine for 24 hours, 4 days after exposure
Method: The methods for DRG culture have been previously described.
Cultures were measured for length of longest axon and area of the DRG halo at days 4, 8, 12, 16 and 20. Lengths were measured from the center of the DRG to the visible distal end of the axon, and areas were calculated by tracing the circumference crested by connecting the tips of the remaining axons. […] Comparisons were made between quantitative data for C57BL/6 and Wld^S axons. For assessment of growth, day 4 observations in Wld^S were compared to all succeeding days using ANOVA for repeated measures.

rat DRG cultures = assay: Resistance to vincristine-induced axonal degeneration in adenovirus-infected rat DRG cultures; assay type: cell-based
Method: Adenovirus was generated as previously described. Briefly, the modified transfer vector was linearized with NheI for preparation of the recombinant adenovirus. […] The transfected 293A cells were trypsinized and diluted with 293A cells, seeded into the 96-well tissue culture plates, and kept at 37 C, 5% CO2 for several days. […] Recombinant adenoviruses were purified from wild type viruses by the limiting dilution method. Adenovirus titers were determined by TCID-50 (Tissue Culture Infectious Dose).
Cultures had extended neurites for 6 days before introduction of the transgene. Transgene expression, indicated by GFP fluorescence, was monitored by fluorescence microscopy.
The methods for DRG culture have been previously described. […] Suppression of Schwann cell growth was accomplished by addition of fluorodeoxyuridine and uridine (both at a dose of 10^−6M, Sigma) on days 2-5.
E15 DRG were grown in culture for 6 days and then exposed to adenovirus (with or without the Wld^Stransgene) as described above. […] Length and area measurements were performed and analyzed as described above for mouse cultures.

[2] = vincristine 0.01 μM, Day 4, C57BL/6
[3] = vincristine 0.01 μM, Day 10, C57BL/6
[4] = vincristine 0.02 μM, Day 4, C57BL/6
[5] = vincristine 0.02 μM, Day 8, C57BL/6
[6] = vincristine 0.02 μM, Day 10, C57BL/6
[7] = vincristine 0.05 μM, Day 4, C57BL/6
[8] = vincristine 0.05 μM, Day 8, C57BL/6
[9] = vincristine 0.05 μM, Day 10, C57BL/6
[10] = vincristine 0.1 μM, Day 4, C57BL/6
[11] = vincristine 0.1 μM, Day 8, C57BL/6
[12] = vincristine 0.1 μM, Day 10, C57BL/6
[13] = Day 3 of treatment, listed as Vin
[14] = Day 4 of treatment, listed as Vin
[15] = Day 6 of treatment, PMSF 50 μM, listed as Vin
[16] = Day 4, continuous 0.01 μM vincristine
[17] = Day 8, continuous 0.01 μM vincristine
[18] = Day 10, continuous 0.01 μM vincristine

Substance: Vincristine sulfate salt
- halo area at day 10 compared to day 0 ([1]; C57BL/6, vincristine 0.01 μM): 42.86±7.30%
- length of longest axons at day 10 compared to day 0 ([1]; C57BL/6, vincristine 0.01 μM): 50.99±5.97%
- halo area at day 10 compared to day 0 ([1]; C57BL/6, vincristine 0.1 μM): 0.45±0.09%
- length of longest axons at day 10 compared to day 0 ([1]; C57BL/6, vincristine 0.1 μM): 3.56±0.62%
- Area of DRG Halo [1, 2]: 7.34 ± 0.78 mm^2
- Length of Longest Neurite [1, 2]: 1.77 ± 0.12 mm
- Area of DRG Halo ([1]; vincristine 0.01 μM, Day 8, C57BL/6): 5.79 ± 0.86 mm^2
- Area of DRG Halo [1, 3]: 4.42 ± 0.85 mm^2
- Length of Longest Neurite [1, 3]: 1.22 ± 0.17 mm
- Area of DRG Halo [1, 4]: 4.56 ± 1.10 mm^2
- Length of Longest Neurite [1, 4]: 1.28 ± 0.22 mm
- Area of DRG Halo [1, 5]: 1.14 ± 0.49 mm^2
- Length of Longest Neurite [1, 5]: 0.53 ± 0.16 mm
- Area of DRG Halo [1, 6]: 0.56 ± 0.27 mm^2
- Length of Longest Neurite [1, 6]: 0.41 ± 0.13 mm
- Area of DRG Halo [1, 7]: 1.20 ± 0.47 mm^2
- Length of Longest Neurite [1, 7]: 0.32 ± 0.08 mm
- Area of DRG Halo [1, 8]: 0.05 ± 0.01 mm^2
- Length of Longest Neurite [1, 8]: 0.09 ± 0.01 mm
- Area of DRG Halo [1, 9]: 0.04 ± 0.01 mm^2
- Length of Longest Neurite [1, 9]: 0.07 ± 0.01 mm
- Area of DRG Halo [1, 10]: 0.46 ± 0.19 mm^2
- Length of Longest Neurite [1, 10]: 0.30 ± 0.09 mm
- Area of DRG Halo [1, 11]: 0.04 ± 0.01 mm^2
- Length of Longest Neurite [1, 11]: 0.08 ± 0.01 mm
- Area of DRG Halo [1, 12]: 0.04 ± 0.01 mm^2
- Length of Longest Neurite [1, 12]: 0.08 ± 0.01 mm
- process of axonal degeneration (in words) (DRG neurites; 0.01 μM): relatively slow
- reduction in DRG area versus day 0 (DRG neurites; 4 days exposure): 91.5%
- reduction in DRG area versus day 0 (DRG neurites; 6 days exposure): 97.9%
- Area (DRG neuritic halo) (DRG neurites; [13]): 6.78 ± 1.06 (17) mm^2
- Length (longest neurite) (DRG neurites; [13]): 1.62 ± 0.19 mm
- Area (DRG neuritic halo) (DRG neurites; Day 3 of treatment): 6.78±1.06 mm^2
- Length (longest neurite) (DRG neurites; Day 3 of treatment): 1.62±0.19 mm
- Area (DRG neuritic halo) (DRG neurites; [14]): 2.45 ± 0.74 (13) mm^2
- Length (longest neurite) (DRG neurites; [14]): 0.91 ± 0.19 mm
- Area (DRG neuritic halo) (DRG neurites; Day 4 of treatment): 2.45±0.74 mm^2
- Length (longest neurite) (DRG neurites; Day 4 of treatment): 0.91±0.19 mm
- Area (DRG neuritic halo) (DRG neurites; [15]): 0.61 ± 0.21 (48) mm^2
- Length (longest neurite) (DRG neurites; [15]): 0.37 ± 0.06 mm
- Area (DRG neuritic halo) (DRG neurites; Day 6 of treatment, PMSF 50 μM): 0.16±0.61 mm^2
- Length (longest neurite) (DRG neurites; Day 6 of treatment, PMSF 50 μM): 0.37±0.06 mm
- time within which axonal degeneration occurs (DRG neurites; concentrations 0.05 μM, 5 day-old cultures): 1 to 3 days
- reduction in length of the longest axons versus day 0 (DRG neurites; day 3, vincristine 0.01 μM): 57.6%
- reduction in length of the longest axons versus day 0 (DRG neurites; day 4, vincristine 0.01 μM): 76.2%
- reduction in length of the longest axons versus day 0 (DRG neurites; day 6, vincristine 0.01 μM): 90.3%
- reduction in DRG area versus day 0 (DRG neurites; three days exposure): 76.6%
- time until fibers are completely replaced by axonal debris (DRG neurites; vincristine exposure (FIG. 1: 0.01 μM)): 5 to 6 days
- DRG area, % of control values (C57BL/6 DRG axons): 32%
- axon length, % of control values (C57BL/6 DRG axons): 35%
- Area of DRG halo (% of Day 0) (rat DRG cultures; [16]): 30.43 ± 5.05 % of Day 0
- Length of axons (% of Day 0) (rat DRG cultures; [16]): 48.79 ± 4.72 % of Day 0
- Area of DRG halo (% of Day 0) (rat DRG cultures; [17]): 13.23 ± 1.52 % of Day 0
- Length of axons (% of Day 0) (rat DRG cultures; [17]): 35.86 ± 3.76 % of Day 0
- Area of DRG halo (% of Day 0) (rat DRG cultures; [18]): 9.78 ± 2.22 % of Day 0
- Length of axons (% of Day 0) (rat DRG cultures; [18]): 26.28 ± 4.08 % of Day 0
